Several values for one entry are separate records, joined by “and”; a condition that tells them apart may be missing. Identical values can stand only once.
Test system: Heliothis virescens caterpillars
Assay: Heliothis virescens test (soybean shoots dipped)
Format: in vivo
Details: 500 ppm active compound
Method: (§1) To produce a suitable preparation of active compound, 1 part by weight of active compound is mixed with the stated amounts of solvent and emulsifier, and the concentrate is diluted with emulsifier-containing water to the desired concentration.
Soybean shoots (Glycine max) are treated by being dipped into the preparation of active compound of the desired concentration and are populated with Heliothis virescens caterpillars while the leaves are still moist.
(§2) After the desired period of time, the kill in % is determined. 100% means that all caterpillars have been killed; 0% means that none of the caterpillars have been killed.

Compound	Kill rate in % after 7 d [%]
Cc1cc(C(F)(C(F)(F)F)C(F)(F)F)ccc1NC(=O)c1c(Cl)cccc1C(=O)NC(C)CSC[Si](C)(C)C (stereo not shown) [drawing 31]	100
Cc1cc(C(F)(C(F)(F)F)C(F)(F)F)ccc1NC(=O)c1cccc(Cl)c1C(=O)NC(C)CSC[Si](C)(C)C (stereo not shown) [drawing 32]	100
Cc1cc(C(F)(C(F)(F)F)C(F)(F)F)ccc1NC(=O)c1c(I)cccc1C(=O)NC(C)CSC[Si](C)(C)C (stereo not shown) [drawing 33]	100
Cc1cc(C(F)(C(F)(F)F)C(F)(F)F)ccc1NC(=O)c1cccc(I)c1C(=O)NC(C)CSC[Si](C)(C)C (stereo not shown) [drawing 34]	100

Test system: not listed separately
Assay: logP determination by HPLC (reversed-phase C18), EEC directive 79/831 Annex V.A8
Format: physicochemical
Details: pH 2.3, 0.1% aqueous phosphoric acid/acetonitrile gradient, 43° C.
Method: The stated logP values were determined in accordance with EEC directive 79/831 Annex V.A8 by HPLC (High Performance Liquid Chromatography) using a reversed-phase column (C 18). Temperature: 43° C.
In the acidic range, the determination was carried out at pH 2.3 using the mobile phases 0.1% aqueous phosphoric acid and acetonitrile; linear gradient from 10% acetonitrile to 90% acetonitrile.
Calibration was carried out using unbranched alkan-2-ones (having 3 to 16 carbon atoms) with known logP values (determination of the logP values by the retention times using linear interpolation between two successive alkanones.

Compound	log P (pH 2.3)
3-Chloro-N^1-[2-methyl-4-(1,1,2,2-tetrafluoroethoxy)phenyl]-N^2-[(trimethylsilyl)methyl]phthalamide (Isomer 1) and 3-chloro-N^2-[2-methyl-4-(1,1,2,2-tetrafluoroethoxy)phenyl]-N^1-[(trimethylsilyl)methyl]phthalamide (Isomer 2) [Example 2 Isomer Mixture]	3.59 and 3.69

Same assay, conditions: pH 2.3, 0.1% aqueous phosphoric acid/acetonitrile gradient, 43° C., read-out: log P (pH 2.3)

Compound	chromatographic logP
Cc1cc(C(F)(C(F)(F)F)C(F)(F)F)ccc1NC(=O)c1c(Cl)cccc1C(=O)NC(C)CSC[Si](C)(C)C (single isomer, unassigned) [Example 1 Isomer 1, 3-Chloro-N^2-{2-methyl-4-[1,2,2,2-tetrafluoro-1-(trifluoromethyl)ethyl]phenyl}-N^1-(1-methyl-2-{[(trimethylsilyl)methyl]sulphanyl}ethyl)phthalamide]	5.38
Cc1cc(C(F)(C(F)(F)F)C(F)(F)F)ccc1NC(=O)c1cccc(Cl)c1C(=O)NC(C)CSC[Si](C)(C)C (single isomer, unassigned) [Example 1 Isomer 2, 3-Chloro-N^1-{2-methyl-4-[1,2,2,2-tetrafluoro-1-(trifluoromethyl)ethyl]phenyl}-N^2-(1-methyl-2-{[(trimethylsilyl)methyl]sulphanyl}ethyl)phthalamide]	5.56
Cc1cc(C(F)(C(F)(F)F)C(F)(F)F)ccc1NC(=O)c1cccc(Cl)c1C(=O)NCC(C)(C)O[Si](C)(C)C (single isomer, unassigned) [Example 3 Isomer 1, 3-Chloro-N^1-{2-methyl-4-[1,2,2,2-tetrafluoro-1-(trifluoromethyl)ethyl]phenyl}-N^2-{2-methyl-2-[(trimethylsilyl)oxy]propyl}phthalamide]	3.11
Cc1cc(C(F)(C(F)(F)F)C(F)(F)F)ccc1NC(=O)c1c(Cl)cccc1C(=O)NCC(C)(C)O[Si](C)(C)C (single isomer, unassigned) [Example 3 Isomer 2, 3-Chloro-N^2-{2-methyl-4-[1,2,2,2-tetrafluoro-1-(trifluoromethyl)ethyl]phenyl}-N^1-{2-methyl-2-[(trimethylsilyl)oxy]propyl}phthalamide]	3.19
CC(N)CSC[Si](C)(C)C (stereo not shown) [1-{[(trimethylsilyl)methyl]sulphanyl}-2-propanamide]	1.28

Test system: caterpillars of the diamond back moth (Plutella xylostella, sensitive strain)
Assay: Plutella test, sensitive strain (cabbage leaves dipped)
Format: in vivo
Details: 500 ppm active compound
Method: Plutella Test, Sensitive Strain
as §1
Cabbage leaves (Brassica oleracea) are treated by being dipped into the preparation of active compound of the desired concentration and are populated with caterpillars of the diamond back moth (Plutella xylostella, sensitive strain) while the leaves are still moist.
as §2

Compound	Kill rate in % after 7 d [%]
Cc1cc(C(F)(C(F)(F)F)C(F)(F)F)ccc1NC(=O)c1c(Cl)cccc1C(=O)NC(C)CSC[Si](C)(C)C (stereo not shown) [drawing 40]	100
Cc1cc(C(F)(C(F)(F)F)C(F)(F)F)ccc1NC(=O)c1cccc(Cl)c1C(=O)NC(C)CSC[Si](C)(C)C (stereo not shown) [drawing 41]	100
Cc1cc(C(F)(C(F)(F)F)C(F)(F)F)ccc1NC(=O)c1c(I)cccc1C(=O)NC(C)CSC[Si](C)(C)C (stereo not shown) [drawing 42]	100
Cc1cc(C(F)(C(F)(F)F)C(F)(F)F)ccc1NC(=O)c1cccc(I)c1C(=O)NC(C)CSC[Si](C)(C)C (stereo not shown) [drawing 43]	100

Test system: caterpillars of the diamond back moth (Plutella xylostella, resistant strain)
Assay: Plutella test, resistant strain (cabbage leaves dipped)
Format: in vivo
Details: 500 ppm active compound
Method: Plutella Test, Resistant Strain
as §1
Cabbage leaves (Brassica oleracea) are treated by being dipped into the preparation of active compound of the desired concentration and are populated with caterpillars of the diamond back moth (Plutella xylostella, resistant strain) while the leaves are still moist.
as §2

Compound	Kill rate in % after 7 d [%]
Cc1cc(C(F)(C(F)(F)F)C(F)(F)F)ccc1NC(=O)c1c(Cl)cccc1C(=O)NC(C)CSC[Si](C)(C)C (stereo not shown) [drawing 44]	100
Cc1cc(C(F)(C(F)(F)F)C(F)(F)F)ccc1NC(=O)c1cccc(Cl)c1C(=O)NC(C)CSC[Si](C)(C)C (stereo not shown) [drawing 45]	100

Test system: caterpillars of the army worm (Spodoptera frugiperda)
Assay: Spodoptera frugiperda test (cabbage leaves dipped)
Format: in vivo
Details: 168 h, 500 ppm active compound, after 7 d, read-out: Kill rate in % after 7 d
Method: Spodoptera frugiperda Test
as §1
Cabbage leaves (Brassica oleracea) are treated by being dipped into the preparation of active compound of the desired concentration and are populated with caterpillars of the army worm (Spodoptera frugiperda) while the leaves are still moist.
as §2

Compound	pest or weed control at 500 ppm [%]
Cc1cc(C(F)(C(F)(F)F)C(F)(F)F)ccc1NC(=O)c1c(Cl)cccc1C(=O)NCC(C)(C)O[Si](C)(C)C	100
Cc1cc(C(F)(C(F)(F)F)C(F)(F)F)ccc1NC(=O)c1cccc(Cl)c1C(=O)NC[Si](C)(C)C	100
Cc1cc(C(F)(C(F)(F)F)C(F)(F)F)ccc1NC(=O)c1cccc(Cl)c1C(=O)NCC(C)(C)O[Si](C)(C)C	100
Cc1cc(Oc2ccc(C(F)(F)F)cc2)ccc1NC(=O)c1c(I)cccc1C(=O)NC(C)CSC[Si](C)(C)C (stereo not shown)	100
Cc1cc(Oc2ccc(C(F)(F)F)cc2)ccc1NC(=O)c1c(Cl)cccc1C(=O)NC(C)CSC[Si](C)(C)C (stereo not shown)	100
Cc1cc(-c2nnn(C(C)(C)C)n2)ccc1NC(=O)c1cccc(I)c1C(=O)NC(C)CSC[Si](C)(C)C (stereo not shown)	100
Cc1cc(C(F)(C(F)(F)F)C(F)(F)F)ccc1NC(=O)c1c(Cl)cccc1C(=O)NC(C)CSC[Si](C)(C)C (stereo not shown) [drawing 52]	100
Cc1cc(C(F)(C(F)(F)F)C(F)(F)F)ccc1NC(=O)c1cccc(Cl)c1C(=O)NC(C)CSC[Si](C)(C)C (stereo not shown) [drawing 54]	100
Cc1cc(C(F)(C(F)(F)F)C(F)(F)F)ccc1NC(=O)c1c(I)cccc1C(=O)NC(C)CSC[Si](C)(C)C (stereo not shown) [drawing 55]	100
Cc1cc(C(F)(C(F)(F)F)C(F)(F)F)ccc1NC(=O)c1cccc(I)c1C(=O)NC(C)CSC[Si](C)(C)C (stereo not shown) [drawing 56]	100
Cc1cc(Oc2ccc(C(F)(F)F)cc2)ccc1NC(=O)c1cccc(I)c1C(=O)NC(C)CSC[Si](C)(C)C (stereo not shown) [drawing 57]	100
Cc1cc(Oc2ccc(C(F)(F)F)cc2)ccc1NC(=O)c1cccc(Cl)c1C(=O)NC(C)CSC[Si](C)(C)C (stereo not shown) [drawing 58]	100

Test system: caterpillars of the army worm (Spodoptera exigua)
Assay: Spodoptera exigua test (cabbage leaves dipped)
Format: in vivo
Details: 500 ppm active compound
Method: as §1
Cabbage leaves (Brassica oleracea) are treated by being dipped into the preparation of active compound of the desired concentration and are populated with caterpillars of the army worm (Spodoptera exigua) while the leaves are still moist.
as §2

Compound	Kill rate in % after 7 d [%]
Cc1cc(C(F)(C(F)(F)F)C(F)(F)F)ccc1NC(=O)c1c(Cl)cccc1C(=O)NC(C)CSC[Si](C)(C)C (stereo not shown) [drawing 46]	100
Cc1cc(C(F)(C(F)(F)F)C(F)(F)F)ccc1NC(=O)c1cccc(Cl)c1C(=O)NC(C)CSC[Si](C)(C)C (stereo not shown) [drawing 47]	100
Cc1cc(C(F)(C(F)(F)F)C(F)(F)F)ccc1NC(=O)c1c(I)cccc1C(=O)NC(C)CSC[Si](C)(C)C (stereo not shown) [drawing 48]	100
Cc1cc(C(F)(C(F)(F)F)C(F)(F)F)ccc1NC(=O)c1cccc(I)c1C(=O)NC(C)CSC[Si](C)(C)C (stereo not shown) [drawing 49]	100

Test system: larvae of the mustard beetle (Phaedon cochleariae)
Assay: Phaedon larvae test (cabbage leaves dipped)
Format: in vivo
Details: 500 ppm active compound
Method: as §1
Cabbage leaves (Brassica oleracea) are treated by being dipped into the preparation of active compound of the desired concentration and are populated with larvae of the mustard beetle (Phaedon cochleariae) while the leaves are still moist.
After the desired period of time, the kill in % is determined. 100% means that all beetle larvae have been killed; 0% means that none of the beetle larvae have been killed.

Compound	Kill rate in % after 7 d [%]
Cc1cc(C(F)(C(F)(F)F)C(F)(F)F)ccc1NC(=O)c1c(Cl)cccc1C(=O)NC(C)CSC[Si](C)(C)C (stereo not shown) [drawing 35]	90
Cc1cc(C(F)(C(F)(F)F)C(F)(F)F)ccc1NC(=O)c1cccc(Cl)c1C(=O)NC(C)CSC[Si](C)(C)C (stereo not shown) [drawing 36]	100
Cc1cc(C(F)(C(F)(F)F)C(F)(F)F)ccc1NC(=O)c1cccc(I)c1C(=O)NC(C)CSC[Si](C)(C)C (stereo not shown) [drawing 37]	100
Cc1cc(Oc2ccc(C(F)(F)F)cc2)ccc1NC(=O)c1cccc(I)c1C(=O)NC(C)CSC[Si](C)(C)C (stereo not shown) [drawing 38]	100
Cc1cc(Oc2ccc(C(F)(F)F)cc2)ccc1NC(=O)c1cccc(Cl)c1C(=O)NC(C)CSC[Si](C)(C)C (stereo not shown) [drawing 39]	100

Reference: patent US6835847B2, “Phthalic acid diamide, method for the production thereof and the use of the same as a pesticide” (Bayer CropScience AG, priority 2001, dated 2004)
